Reference: patent US9777002B2, “Inhibitors of the renal outer medullary potassium channel” (Merck Sharp & Dohme Corp., priority 2012, dated 2017)

Key:
hROMK (hKir1.1) = biological target: T1, hROMK (hKir1.1) (Homo sapiens, UniProt P48048); assay: Thallium Flux Assay; format: cell-based; details: HEK293 cells stably expressing hROMK (hKir1.1)
T1 construct: expressed in transfected cells
T1 sequence (P48048 1-391): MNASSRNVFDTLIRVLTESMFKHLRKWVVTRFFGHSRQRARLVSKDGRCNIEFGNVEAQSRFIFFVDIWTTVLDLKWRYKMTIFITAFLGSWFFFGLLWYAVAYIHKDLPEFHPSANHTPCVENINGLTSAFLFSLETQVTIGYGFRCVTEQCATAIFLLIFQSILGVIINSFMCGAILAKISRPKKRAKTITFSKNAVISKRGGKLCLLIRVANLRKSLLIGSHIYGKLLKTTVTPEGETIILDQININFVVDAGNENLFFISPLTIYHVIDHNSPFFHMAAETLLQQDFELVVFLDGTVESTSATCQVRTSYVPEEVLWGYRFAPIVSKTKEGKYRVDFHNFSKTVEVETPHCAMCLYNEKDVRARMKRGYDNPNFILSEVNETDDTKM
Outline: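 HEK293 cells stably expressing hROMK were loaded with FluxOR dye for 90 min, then incubated with compound in probenecid assay buffer plus 0.3 mM ouabain, pH 7.4, for 30 min at 23-25 °C. Flux was triggered with 3 mM thallium/0.3 mM potassium (final) and read on FLIPR-Tetra for ~10 min. IC50 was calculated against the signal blocked by 3 μM control inhibitor.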

Kir1.1 (ROMK1) = biological target: T2, Kir1.1 (ROMK1) (Homo sapiens, UniProt P48048); assay: Electrophysiology Assay (whole cell voltage clamp, IonWorks Quattro); format: cell-based; details: Chinese hamster ovary cells stably expressing Kir1.1; block during voltage step to 0 mV
T2 construct: expressed in transfected cells; expression induced with sodium butyrate
T2 sequence (P48048 1-391): T1 sequence (P48048 1-391)
Description: Block of Kir1.1 (ROMK1) currents was examined by whole cell voltage clamp (Hamill et. al. Pfluegers Archives 391:85-100 (1981)) using the IonWorks Quattro automated electrophysiology platform (Molecular Devices, Sunnyvale, Calif.). Chinese hamster ovary cells stably expressing Kir1.1 channels were maintained in T-75 flasks in cell culture media in a humidified 10% CO2 incubator at 37° C. Prior to an experiment, Kir1.1 expression was induced by overnight incubation with 1 mM sodium butyrate. On the day of the experiment, cells were dissociated with 2.5 mL of Versene (Invitrogen 15040-066) for approximately 6 min at 37° C. and suspended in 10 mL of bath solution containing (in mM): 150 NaCl, 10 KCl, 2.7 CaCl2, 0.5 MgCl2, 5 HEPES, pH 7.4. After centrifugation, the cell pellet was resuspended in approximately 4.0 mL of bath solution and placed in the IonWorks instrument. The intracellular solution consisted of (in mM): 80 K gluconate, 40 KCl, 20 KF, 3.2 MgCl2, 3 EGTA, 5 Hepes, pH 7.4. Electrical access to the cytoplasm was achieved by perforation in 0.13 mg/mL amphotericin B for 4 min. Amphotericin B (Sigma A-4888) was prepared as a 40 mg/mL solution in DMSO. Voltage protocols and current recordings were performed using the IonWorks HT software/hardware system. Currents were sampled at 1 kHz. No correction for liquid junction potentials was used. The test pulse, consisting of a 100 ms step to 0 mV from a holding potential of −70 mV, followed by a 100 ms voltage ramp from −70 mV to +70 mV, was applied before and after a 6 min compound incubation period. Test compounds were prepared by diluting DMSO stock solutions into the bath solution at 3× the final concentration and placed in the instrument in 96-well polypropylene plates. Current amplitudes were measured using the IonWorks software. To assess compound potency, the fractional block during the voltage step to 0 mV was calculated in Microsoft Excel (Microsoft, Redmond, Calif.), and dose-response curves were fitted with Igor Pro 4.0 (WaveMetrics, Lake Oswego, Oreg.). Normally, a control compound is included to support that the assay is giving consistent results compared to previous measurements, although the control is not required to obtain the results for the test compounds.

| IC50 (hROMK (hKir1.1)) | IC50 (Kir1.1 (ROMK1)) | Compound |
| --- | --- | --- |
| 0.01 µM | 0.04 µM | Cc1c(CCN2CCC(NC(=O)c3ccc4c(c3)COC4=O)CC2)ccc2c1COC2=O [Example 1, N-(1-(2-(4-Methyl-1-oxo-1,3-dihydroisobenzofuran-5-yl)ethyl)piperidin-4-yl)-1-oxo-1,3-dihydroisobenzofuran-5-carboxamide] |
| 1 µM | 0.12 µM | Cc1c(CCN2CCC(NC(=O)c3ccc(F)c(C#N)c3)CC2)ccc2c1COC2=O [Example 12, 3-Cyano-4-fluoro-N-(1-(2-(4-methyl-1-oxo-1,3-dihydroisobenzofuran-5-yl)ethyl)piperidin-4-yl)benzamide] |
| 1.23 µM | 0.24 µM | Cc1c(CCN2CCC(NC(=O)c3ccc(C#N)cc3S(C)(=O)=O)CC2)ccc2c1COC2=O [Example 29, 4-Cyano-N-(1-(2-(4-methyl-1-oxo-1,3-dihydroisobenzofuran-5-yl)ethyl)piperidin-4-yl)-2-(methylsulfonyl)benzamide] |
| 1.32 µM | 0.63 µM | Cc1c([C@@H](O)CN2CCC(C)(NC(=O)c3ccc(C#N)cn3)CC2)ccc2c1COC2=O [Example 40, (R)-5-Cyano-N-(1-(2-hydroxy-2-(4-methyl-1-oxo-1,3-dihydroisobenzofuran-5-yl)ethyl)-4-methylpiperidin-4-yl)picolinamide] |
| 0.13 µM |  | Cc1c([C@@H](O)CN2CCC(N3Cc4cc(-n5cnnn5)ccc4C3=O)CC2)ccc2c1COC2=O [Example 91, (R)-2-(1-(2-Hydroxy-2-(4-methyl-1-oxo-1,3-dihydroisobenzofuran-5-yl)ethyl)piperidin-4-yl)-5-(1H-tetrazol-1-yl)isoindolin-1-one] |
